In patent US9663486B2, “Selectively substituted quinoline compounds” (EISAI R&D MANAGEMENT CO., LTD., priority 2013, dated 2017):

Legend:
[1] = biological target: T1, Human TLR7 (Homo sapiens, UniProt Q9NYK1); assay: HEK-293 NFkB-luciferase reporter assay, CL097 stimulation; format: cell-based; conditions: ligand CL097
T1 construct: stably and individually express human TLR4, TLR7 or TLR9 full-length ORF cDNAs; host or cells: HEK-293 (ATCC) with ELAM-1 NF-kappaB luciferase reporter
T1 sequence (Q9NYK1 27-1049): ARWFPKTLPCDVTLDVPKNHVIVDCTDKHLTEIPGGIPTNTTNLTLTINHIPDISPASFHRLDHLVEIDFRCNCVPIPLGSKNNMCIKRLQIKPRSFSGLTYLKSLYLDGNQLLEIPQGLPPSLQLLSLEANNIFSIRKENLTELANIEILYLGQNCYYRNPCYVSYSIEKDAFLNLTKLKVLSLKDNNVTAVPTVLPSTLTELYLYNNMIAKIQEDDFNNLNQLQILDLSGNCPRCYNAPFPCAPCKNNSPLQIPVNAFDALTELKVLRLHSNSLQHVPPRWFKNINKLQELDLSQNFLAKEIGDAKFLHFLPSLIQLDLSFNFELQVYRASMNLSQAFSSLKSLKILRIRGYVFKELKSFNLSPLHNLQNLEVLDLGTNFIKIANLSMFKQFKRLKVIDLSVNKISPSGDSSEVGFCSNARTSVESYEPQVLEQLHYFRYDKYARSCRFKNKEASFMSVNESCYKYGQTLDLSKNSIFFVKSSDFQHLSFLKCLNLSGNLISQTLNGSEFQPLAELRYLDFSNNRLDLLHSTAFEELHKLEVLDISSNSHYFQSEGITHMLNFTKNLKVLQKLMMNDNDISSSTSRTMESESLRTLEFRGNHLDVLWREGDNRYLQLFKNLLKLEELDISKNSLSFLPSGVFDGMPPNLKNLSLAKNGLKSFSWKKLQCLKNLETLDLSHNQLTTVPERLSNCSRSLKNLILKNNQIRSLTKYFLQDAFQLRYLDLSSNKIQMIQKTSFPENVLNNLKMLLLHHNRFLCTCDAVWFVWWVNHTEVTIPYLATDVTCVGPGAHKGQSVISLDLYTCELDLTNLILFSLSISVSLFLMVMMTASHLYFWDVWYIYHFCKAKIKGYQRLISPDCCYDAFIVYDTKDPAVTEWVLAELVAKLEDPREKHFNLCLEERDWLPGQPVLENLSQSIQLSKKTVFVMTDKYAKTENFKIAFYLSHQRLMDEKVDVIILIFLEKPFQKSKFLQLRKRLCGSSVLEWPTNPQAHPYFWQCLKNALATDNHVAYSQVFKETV
Source text: HEK-293 cells (ATCC) were engineered to stably express a NF-kappaB transcription factor inducible E-selectin (ELAM-1) luciferase reporter derived from the plasmid pGL3 (Promega) containing base pairs −2241 bp to −254 bp from the promoter of the human E-selectin gene (Accession No. NM_000450). These cells were then subsequently engineered to stably and individually express human TLR4, TLR7 or TLR9 full-length ORF cDNAs. Human TLR4 cDNA (Accession No. NM_138554) was cloned into pcDNA 3.0 expression vector (Invitrogen). TLR4 transfected cells were also engineered to express human MD-2 co-receptor [MD-2 cDNA (Accession No. NM_015364) was cloned into the pEF-BOS vector] and were supplemented with 10 nM soluble CD14 (R&D Systems) in the media to optimize LPS responsiveness. Human TLR9 cDNA (Accession No. NM_017442) was cloned into the pBluescript II KS vector (Agilent). Human TLR7 cDNA (Accession No. NM_016562) was obtained from OriGene. HEK-293 cells stably expressing human TLR8 (Accession No. NM_138636) or mouse TLR7 (Accession No. NM_133211) were purchased from InvivoGen and were then stably transfected with pNiFty2(NF-kappaB)-luciferase reporter plasmid (InvivoGen). Each cell type was plated in Dulbecco's modified Eagle's medium (DMEM) containing 10% fetal bovine serum (FBS) at a density of 2.22×10^5 cells/ml into a 384-well plate and incubated for 2 days at 37° C., 5% CO2. […]

[2] = tested on: Human TLR7/8; assay: Human PBMC cell-based assay, TLR7/8 (RNA-Ig), cytokine ELISA; conditions: Hu PBMC; ligand RNA-Ig; read-out: IC50, IL-6, Human TLR7/8
Procedure: Human peripheral blood mononuclear cells (PBMC) were isolated from freshly-drawn heparinized (10 USP units/ml, Hospira, Lakeforest, Ill.) healthy donor whole blood by density gradient (Histopaque® 1077, Sigma, Inc., St. Louis, Mo.). Briefly, 25 ml blood was diluted with 15 ml PBS (without Ca^2+, Mg^2+) in a 50 ml conical tube, and 12 ml Histopaque was underlaid using a spinal needle. Tubes were centrifuged for 45 minutes at 1200 rpm (350×g), and PBMC were collected from the buffy coat. Cells were then washed twice in PBS, and red blood cells were lysed by suspension in 5 ml ammonium chloride solution (1× Red Blood Cell Lysis Buffer, eBioscience) for 5 minutes at room temperature. After a final wash in PBS, PBMC were resuspended at a final concentration of 2×10^6/ml in RPMI-1640 media with L-glutamine (Invitrogen) and supplemented with 25 mM HEPES (Mediatech, Inc, Manassas Va.), 10% fetal bovine serum (HyClone, Logan, Utah), and Penicillin-Streptomycin-Glutamine (Mediatech) and plated at 100 ul/well (2×10^5 cells/well) in tissue culture treated 96-well plates (Falcon).
Antagonist compounds solubilized and serial diluted in 100% DMSO were added in triplicate to cells to yield a final concentration of 0.1% DMSO (v/v). Hydroxychloroquine (Acros Organics) solubilized and serial diluted in PBS was added in triplicate to cells. PBMC were incubated with antagonist compounds or HCQ for 30 minutes at 37° C., 5% CO2 before adding various TLR agonist reagents in 100 ul complete media per well as follows (final concentrations indicated): R848 (Resiquimod; GLSynthesis, Worcester, Mass.) at 1 uM for TLR7 and TLR8, Pam3CSK4 (InvivoGen) at 50 ng/ml for TLR1/2, LPS (Sigma) at 10 ng/ml for TLR4, and CpG-2216 (InvivoGen) at 5 ug/ml for TLR9. […] The resulting “RNA-Ig” stimulus was incubated at room temperature for 15-30 minutes before adding to cells. PBMC were incubated with the various TLR agonists for 20 hours at 37° C., 5% CO2. Cell culture supernatants were collected, and levels of various human cytokines were assessed as indicated by standard ELISA procedure according to the manufacturer's recommended protocol (BD Biosciences, Inc., San Diego, Calif.).

Question: Which IC50 [1] does the source give for `C[C@H]1C[C@@H](N)CN(c2ccc(C#N)c3ncccc23)C1` [ER-888840, 5-((3R,5S)-3-amino-5-methylpiperidin-1-yl)quinoline-8-carbonitrile] here?
Answer: 0.2 nM

Question: And the IC50 [2]?
Answer: 1.4 nM
